Tests used:
CYP2B [1] = system: CYP2B
Procedure: (§1) Primary rat hepatocytes from 6-well plates or chamber slides were lysed and scraped in SDS buffered (10 mM Tris/HCl (ph 7.4), 0.1% SDS). Samples were added to microcentrifuge tubes with 5 μl of PMSF, homogenized with a pestle, and centrifuged at 16,200 g for 5 minutes. Total protein content in the supernatant was determined using the DC protein assay (Bio-Rad, Hercules, Calif.) and used to normalize sample loading. Samples prepared in sample buffer were loaded (10-20 μg/well) for electrophoresis on a 10% polyacrylamide gel. After overnight transfer on to a PVDF membrane, blots were incubated with a blocking buffered (20 mM Tris-Cl (pH 7.4), 500 mM NaCl, 0.1% Tween 20, and 5% (w/v) milk powder) and washed with buffer without milk powder, incubation for 1 h with primary antibody against rat PEPCK or rat CYP2B (Genset, Woburn, Mass.) was followed by washing and incubation with either anti-sheep (PEPCK) or anti-goat (CYP2B) HRP-conjugated secondary antibody for 45 minutes. After washing, the Pierce SuperSignal chemiluminescence reagent was used for detection. All electrophoresis gels were run with molecular mass markers to verify PEPCK bands (67 kDa) or CYP2B1/2 bands (56 kDa). Optical density measurements were obtained using scanned blot images with 1d gelscan software (Metamorph).

CYP2B [2] = test: CYP2B protein induction in static and perfused co-cultures, Western blot
Procedure: as §1

CYP3A = CYP3A protein induction in static and perfused co-cultures, Western blot
CYP2B [3] = test: Zonal induction of CYP2B in hepatocyte bioreactor under oxygen gradient, Western blot
Procedure: Bioreactor cultures were perfused with media and allowed to reach steady state before the addition of inductive agents of glucagon for PEPCK up-regulation or phenobarbitol (PB) and EGF for CYP2B1 induction. […] Media with 0.75 mM PB and 0.16 nM EGF was perfused for 36 h to induced CYB2B expression before cell lysis. Cell lysates were collected at the end of each experiment for electrophoretic analysis.
Primary rat hepatocytes from 6-well plates or chamber slides were lysed and scraped in SDS buffered (10 mM Tris/HCl (ph 7.4), 0.1% SDS). Samples were added to microcentrifuge tubes with 5 μl of PMSF, homogenized with a pestle, and centrifuged at 16,200 g for 5 minutes. Total protein content in the supernatant was determined using the DC protein assay (Bio-Rad, Hercules, Calif.) and used to normalize sample loading. Samples prepared in sample buffer were loaded (10-20 μg/well) for electrophoresis on a 10% polyacrylamide gel.

PEPCK = test: Zonal induction of PEPCK in hepatocyte bioreactor under oxygen gradient, Western blot; format: cell-based, rat
From the text: Hepatocyte Isolation And Culture.
Bioreactor And Flow Circuit.

[4] = cultures perfused with 200 μM PB, 36 hours
[5] = static cultures induced with PB

Compound: C[C@@H]1C[C@H]2[C@@H]3CCC4=CC(=O)C=C[C@]4(C)[C@@]3(F)[C@@H](O)C[C@]2(C)[C@@]1(O)C(=O)CO [DEX, dexamethasone]
- CYP2B induction and localization (CYP2B [1]): high levels which were localized to inlet regions

Compound: CCC1(c2ccccc2)C(=O)NC(=O)NC1=O [PB, phenobarbital]
- CYP2B expression over controls (CYP2B [2]; [4]): Dramatic expression of both CYPs over controls
- CYP2B spatial distribution along bioreactor (CYP2B [2]; [4]): levels were highest in the lower-oxygen outlet regions
- CYP2B expression (CYP2B [2]; [5]): moderate CYP2B expression
- CYP3A expression over controls (CYP3A; [4]): Dramatic expression of both CYPs over controls
- CYP3A spatial distribution along bioreactor (CYP3A; [4]): increasing expression from inlet to outlet
- CYP3A expression (CYP3A; [5]): low CYP3A
- CYP2B induction along the chamber (CYP2B [3]; 0.75 mM PB with 0.16 nM EGF, 36 h, inlet pO2 76 mmHg, 0.5 mL/min (physiologic gradient)): increasing CYP2B induction along the length of the chamber
- CYP2B levels from inlet to outlet (CYP2B [3]; PB with EGF, supraphysiologic oxygen gradient, same flow rate): did not result in significant differences in CYP2B levels from inlet to outlet

Compound: glucagon
- PEPCK protein levels in 4 bioreactor regions (PEPCK; 10 nM glucagon 8 h, inlet pO2 76 mmHg, 0.5 mL/min (physiologic gradient)): maximal PEPCK protein levels at the inlet decreasing to half maximal at the outlet
- PEPCK induction distribution (PEPCK; 10 nM glucagon, inlet pO2 158 mmHg, 0.5 ml/min (supraphysiologic gradient)): heterogenous induction of PEPCK was abrogated

From patent US20060258000A1, “Use of steady-state oxygen gradients to modulate animal cell functions” (priority 2003, published 2006)
